Values quoted from earlier work, collected in patent US6924277B2, “Cyclized benzamide neurokinin antagonists for use in therapy” (AstraZeneca AB, priority 2000, dated 2005).
Read-outs that look alike come from different tables or passages of the source. Peptide text beside a SMILES is read from it.

Experiments:
[1] = Light-dark box
[2] = system: Marmoset; details: Marmoset human intruder; Walsh et al., Psychopharmacology 121: 186-191, 1995
[3] = Elevated plus-maze
[4] = Forced swim test (depression model); only at 30 mg/kg bid; Vassout et al, Neuropeptides 26/S1: 38, 1994
[5] = Walsh et al., Psychopharmacology 121: 186-191, 1995
[6] = Stratton et al., Eur. J. Pharmacol. 250: R11-12, 1993
[7] = Teixeira et al., Eur J Pharmacol 311(1): 7-14, 1996

For COC1(C[S@@+]([O-])c2ccccc2)CCN(CCc2c[nH]c3ccc(F)cc23)CC1 [GR159897], the Outcome [1, 5] is listed as “anxiolytic” and the Outcome [2] is listed as “anxiolytic”.
For Cc1cc(C)cc(C(=O)N2CC[C@H](NCc3ccnc4ccccc34)C[C@H]2Cc2ccccc2)c1 [CGP 49823], the Outcome ([3]; Vassout et al, Neuropeptides 26/S1: 38, 1994) is given as “inactive”, the Outcome (Social interaction test, Vassout et al, Neuropeptides 26/S1: 38, 1994) is given as “anxiolytic” and the Outcome (Social interaction, File, Pharm Bio B 58(3): 747-752, 1997) is given as “anxiolytic”. For the same compound, the Outcome [4] was “antidepressant”.
For C[C@H](NC(=O)CNC(=O)C1CCCCC1)C(=O)N[C@H](Cc1c[nH]c2ccccc12)C(=O)N[C@@H](Cc1ccccc1)C(=O)N(C)C [GR100679] (HELM PEPTIDE1{[O=C(C1CCCCC1)[*:2]].G.A.[dW].F.[CN(C)[*:1]]}$$$$V2.0), the Outcome [1, 6] is given as “anxiolytic”.
For CN(Cc1ccccc1)C(=O)[C@H](Cc1ccc2ccccc2c1)NC(=O)[C@@H]1C[C@@H](O)CN1C(=O)c1cn(C)c2ccccc12 [FK888], the Outcome [3, 7] is given as “anxiolytic”.
For CC(=O)NC1(c2ccccc2)CCN(CC[C@H](CN(C)C(=O)c2ccccc2)c2ccc(Cl)c(Cl)c2)CC1 [SR48968], the Outcome [1, 6] is listed as “anxiolytic”, the Outcome [1, 5] is listed as “anxiolytic” and the Outcome [3, 7] is listed as “anxiolytic”. For the same compound, the Outcome [2] was “anxiolytic”.
